Experimental findings from publication PMC11973282, “RAS70 peptide targets multiforme glioblastoma by binding to the plasma membrane heat shock protein HSP70” (Frontiers in Oncology, 2025) are described below.

The subject of data set [1] is human U87 glioblastoma cells. Nature of the data set: Flow cytometry of FITC-labeled peptide internalization, 24 h (also with antibody pre-treatment). It counts as cell-based. How it is done:
(§1) The binding of the TKD-sCy5, RAS70-sCy5, and NGL-RGD-sCy5 peptides were analyzed using a CytoFLEX flow cytometer (Beckman Coulter, USA). A single cell suspension of C6, GL261, T98G, U87, U251, ANI, IBD, TMS (0.15×10^6 cells in mL^-1) were incubated for 30 minutes on ice in the dark with peptides in concentration of 75 μg/mL, and then washed with cold PBS solution. Cells without peptides were used as controls. To evaluate incorporation of the fluorescently-labeled peptides for longer period of co-incubation of 24 h cells (C6, GL261, U87, U251) were treated with FITC-labeled peptides, then washed with PBS and assessed on a CytoFLEX flow cytometer (Beckman Coulter, USA). Following FACS analysis cell pellet was further evaluated employing confocal microscopy Leica TCS SP8 (Leica Microsystems, Germany).
(§2) The incorporation of peptides over longer periods of co-incubation with brain tumor cells was additionally analyzed using a Cytomics FC500 flow cytometer (BeckmanCoulter, USA). Tumor cells (C6, GL261, U87, U251) were incubated with peptides (concentration 50 μg/mL) for 24 hours, washed with PBS. Internalization of FITC-labeled peptides was assessed by determining the mean fluorescence intensity (MFI). According to the study data ( Figure 6A ), it was shown that TKD peptide accumulated in all cell lines – 2120 ± 152 (C6), 2099 ± 107 (GL261), 2145 ± 189 (U87), 2373 ± 201 (U251) compared to the control scramble peptide (NGL) – 378 ± 48 (C6), 344 ± 57 (GL261), 301 ± 66 (U87), 313 ± 56 (U251) (P<0.001). […] Following FACS analysis the cell pellet was collected and evaluated for peptides cell uptake employing confocal microscopy ( Figure 6B ). The obtained microscopy data confirmed higher accumulation of RAS70 peptide in studied cell lines as compared to TKD or scramble peptides.
(§3) Figure 6 Evaluation of the mHsp70-targeting peptides internalization by glioma cells. (A) Flow cytometric evaluation of FITC-labeled peptide accumulation in tumor cell lines (rat glioma C6, mouse glioma GL261, human glioblastoma U87 and U251) after co-incubation for 24 hours. […] (B) Confocal microscopy assessment of FITC-labeled peptide accumulation in tumor cell lines (rat glioma C6, mouse glioma GL261, human glioblastoma U87 and U251) after co-incubation for 24 hours. […] (C) Analysis of the peptides uptake by human U87 glioblastoma cells following co-incubation for 24 hours.
To evaluate the mHsp70-mediated uptake of the peptides prior to co-incubation with either TKD or RAS70 peptides cells were pre-treated with anti-Hsp70 antibodies (SPA-810, SPA-815) that are known to target the membrane-bound chaperone on cancer cells ([37]). […] The tripeptide RGD (Arg-Gly-Asp) motif is known to bind to integrins, including αvβ3 and αvβ5 expressed on brain tumor cells and tumor endothelial cells ([38], [39]). […] As expected, we observed the decrease of NGL-RGD and RAS70 internalization by tumor cells but not of TKD or NGL peptides ( Figure 6C ).
A general note: A flow cytometer gives signals particle by particle.

The test system of data set [2] is C6, GL261, and T98G cells. Nature of the data set: MTT test, overall statement for all cell lines studied. The conditions noted are these: fluorescently labeled peptides, 7.5, 75, 750 µg/mL, 24, 48 and 72 hours. Background: Tetrazolium assays rely on reduction of a dye to a coloured formazan, in cell work by metabolically active cells.
For the next data set, the system named is C6 (rat glioma) cells. Nature of the data set: Flow cytometry of FITC-labeled peptide internalization, 24 h. The conditions noted are these: 50 μg/mL, M ± SE, 3 independent experiments. It counts as cell-based. How it is done: as §1, §2, §3
Data set [3] deals with GL261 (mouse glioma) cells. The data set is described as above. The format is cell-based. The conditions noted are these: 50 μg/mL, M ± SE, 3 independent experiments. How it is done:
as §1, §2, §3

The test system of data set [4] is human glioblastoma U251 cells. The data set is described as above. It counts as cell-based. The conditions noted are these: 50 μg/mL, M ± SE, 3 independent experiments. The procedure: as §1, §2, §3
Data set [5] concerns C6 cells (lower chamber; HUVEC and astrocytes barrier).
Method: (§4) Then, a peptide labeled with a fluorescent label was introduced into the upper chamber and co-incubation was carried out for 12, 24 and 36 hours. At the end of the incubation, the tumor cells were washed with cold phosphate-buffered saline (PBS) and fixed with a 4% solution of paraformaldehyde in PBS. Nuclei were stained with 4’,6-diamidino-2-phenylindole (DAPI). Fluorescent images were obtained using a Leica TCS SP8 confocal microscope (Leica, Germany). To avoid possible cross-interference of different fluorochromes, images for DAPI and FITC were obtained using a sequential sample scanning method. Fluorescently labeled cells were counted in the lower chamber. To estimate the mHsp70-mediated uptake of chaperone-targeted peptides tumor cells prior to incubation were pre-treated with anti-Hsp70 monoclonal antibodies SPA-810 (1:250, Stressgen) and SPA-815 (1:250 Stressgen). To exclude integrin (αvβ3, αvβ5)-mediated penetration of RAS70 tumor cells prior to incubation with peptides were pre-treated with anti- αvβ3 (1:200 clone LM609, ZMS1030, Sigma-Aldrich, USA), -αvβ5 (1:200 clone P1F6, MAB1961Z, Sigma-Aldrich, USA) monoclonal antibodies.
(§5) Then, a peptide labeled with a fluorescent dye (FITC) was introduced into the upper chamber and co-incubation was carried out for 12, 24 and 36 hours. At the end of the incubation, the tumor cells were washed with cold phosphate-buffered saline (PBS) and fixed with a 4% solution of paraformaldehyde in PBS. Nuclei were stained with 4’,6-diamidino-2-phenylindole (DAPI).
(§6) Data from 3 independent experiments are presented as M ± SE. […] Data from 3 independent experiments are presented as M ± SE. ** p < 0.01 for testing mean expression levels.
In data set [6] the test system is GL261 cells (lower chamber; HUVEC and astrocytes barrier).
Method: as §4, §5, §6
In data set [7] the test system is U251 cells (lower chamber; HUVEC and astrocytes barrier).
Method: as §4, §5, §6
Data set [8] concerns U87 cells (lower chamber; HUVEC and astrocytes barrier). Nature of the data set: Transwell BBB model, peptide passage and accumulation in tumor cells (also with antibody pre-treatment). It counts as in vitro ADME, human. An excerpt:
Fluorescently labeled cells were counted in the lower chamber.
Next, we assessed the mHsp70- and integrin (αvβ3, αvβ5)-mediated penetration of the TKD and RAS70 via the BBB ( Figure 9B ). […] When anti-αvβ3 and anti-αvβ5 mAbs were employed, we detected the decrease of NGL-RGD and RAS70 penetration via the BBB but not the NGL and TKD peptides.

Where a SMILES comes first, the peptide text is derived from it. [ ]: non-standard residue; d: D form. βAla = NCCC(=O)O

With `CC(C)C[C@H](NC(=O)CNC(=O)[C@@H](N)CC(N)=O)C(=O)N[C@H](C(=O)N[C@@H](CC(C)C)C(=O)N[C@@H](CCCCN)C(=O)N[C@@H](CC(N)=O)C(=O)N[C@@H](CC(=O)O)C(=O)N[C@@H](Cc1ccccc1)C(=O)N[C@@H](CO)C(=O)N[C@@H](CCCNC(=N)N)C(=O)N[C@@H](CC(C)C)C(=O)N[C@@H](CCC(=O)O)C(=O)NCC(=O)NCCC(=O)N[C@@H](CCCNC(=N)N)C(=O)NCC(=O)N[C@@H](CC(=O)O)C(=O)O)[C@@H](C)O` [NGL-RGD] (H-NGLTLKNDFSRLEG[βAla]RGD-OH), the “peptide internalization after pre-treatment with anti-αvβ3 and -αvβ5 antibodies” value in data set [1] (U87, 24 hours, cells pre-treated with anti-αvβ3 (LM609) and anti-αvβ5 (P1F6) mAbs (1:200)) is “decrease”. In data set [1] (U87, 24 hours, combination of antibodies), the “peptide uptake after pre-treatment with both anti-Hsp70 and anti-αvβ3/-αvβ5 mAbs” value is given as “significant abrogation”. For the same compound, the “cytotoxic effect (MTT test)” value in [2] is given as “did not reveal the toxic effect”.

As to “NGLTLKNDFSRLEG [control scramble peptide]”, the “mean fluorescence intensity (MFI), internalization of FITC-labeled peptide” value is recorded as 301 ± 66 in [1] (U87, 50 μg/mL, 24 hours, flow cytometry, M ± SE, 3 independent experiments); 378 ± 48 with C6 (rat glioma) cells; 344 ± 57 in data set [3]; 313 ± 56 in data set [4]. Also, the “fluorescently labeled tumor cells in the lower chamber” value in data set [5] stood at 211 ± 29 cells; in [6] it was 188 ± 47 cells; in [7] it was 221 ± 38 cells; in data set [8] (transwell BBB model: HUVEC (5×10^5) and astrocytes (5×10^5) in upper chamber, U87 (1×10^4) in lower chamber, FITC-labeled peptide, 36 hours, confocal microscopy count, M ± SE, 3 independent experiments) it was 211 ± 41 cells. Besides, the “penetration via the BBB after combined anti-αvβ3, anti-αvβ5 and anti-Hsp70 mAbs” value in data set [8] (transwell, U87 cells, combined antibody treatment) is “excluding”.
